Experimental data from patent publication US20230374025A1, “FGFR INHIBITOR COMPOUND AND USE THEREOF” (SHENZHEN KANGSU PHARMACEUTICAL TECHNOLOGY CO., LTD., priority 2021, published 2023).

What was measured:
Format in all cases: biochemical
FGFR1 = target: T1, FGFR1 (Homo sapiens, UniProt P11362); assay: Assay II: inhibitory activity against wild-type FGFR (HTRF KinEASE-TK); conditions: ATP 50 μM, substrate TK 1 μM
T1 construct: purchased Carna 08-133
Procedure: (§1) Assay II: Determination of Inhibitory Activity Against Wild-Type FGFR
(§2) 1. Reagents and Equipment
(§3) 2. Experimental Steps PGP-5T
(§4) 2.1 Preparation of 1× Kinase Reaction Buffer:
(§5) 1× Kinase reaction buffer was formulated with 1× volume of 5× kinase reaction buffer and 4× volume of water; 5 mM MgCl2; and 1 mM DTT.
(§6) 2.3 Screening of Compounds:
(§7) 1. Diluting a compound 4-fold in a dilution plate with DMSO, with a starting compound concentration of 2 mM.
(§8) 2. Diluting the compound 40-fold into 1× kinase reaction buffer and shaking it on a shaker for 20 minutes.
(§9) 3. Formulating 2×FGFR1/FGFR2/FGFR3 with 1× of enzyme reaction buffer.
(§10) 4. Adding 2 μl FGFR1/FGFR2/FGFR3 kinase (formulated in step 3) to each well of the reaction plate.
(§11) 5. Adding 1 μl of the compound diluted in buffer to each well, sealing the plate with a sealing membrane and centrifuging the plate at 1000 g for 30 seconds and leaving it at room temperature for 10 minutes.
(§12) 6. Formulating 2.5×TK-substrate-biotin and ATP mixture with 1× enzyme reaction buffer and add 2 μl of K-substrate-biotin/ATP mixture to the reaction plate.
(§13) 7. Sealing the plate with a sealing membrane and centrifuging the plate at 1000 g for 30 seconds and allowing it to react at room temperature for 50 minutes.
(§14) 8. Formulating 4× Sa-XL 665 (250 nM) with HTRF assay buffer.
(§15) 9. Adding 5 μl Sa-XL 665 and 5 μl TK-Antibody-Cryptate to each well, centrifuging it at 1000 g for 30 seconds, and allowing it to react for 1 hour at room temperature.
(§16) 10. Reading fluorescence signals at 615 nm (Cryptate) and 665 nm (XL665) with Biotek.
(§17) 3.1 Calculation of the ratio for each well: the ratio was calculated as 665/615 nm.
(§18) 3.3 Calculation of IC50 and plotting of inhibition curves for the compounds.
(§19) The IC50 (half inhibition concentration) of a compound was obtained using the following non-linear fitting equation, wherein data analysis was performed using Graphpad 6.0 software.
(§20) Y=Bottom+(Top−Bottom)/(1+10^((Log IC50−X)*Hill Slope)) • X: log value of compound concentration; and Y: inhibition rate (% inh)
(§21) 3.4 Validation of Results
(§22) Data were exported from Envision and analyzed manually. The ratios were converted to inhibition rates and IC50 was calculated by Prism GraphPad 6.0 from the inhibition rates. IC50 was calculated again by the ratios to verify accuracy of the results.

FGFR2 = target: T2, FGFR2 (Homo sapiens, UniProt P21802); assay: as above; conditions: ATP 50 μM, substrate TK 1 μM
T2 construct: purchased Carna 08-134
T2 sequence (P21802 22-821): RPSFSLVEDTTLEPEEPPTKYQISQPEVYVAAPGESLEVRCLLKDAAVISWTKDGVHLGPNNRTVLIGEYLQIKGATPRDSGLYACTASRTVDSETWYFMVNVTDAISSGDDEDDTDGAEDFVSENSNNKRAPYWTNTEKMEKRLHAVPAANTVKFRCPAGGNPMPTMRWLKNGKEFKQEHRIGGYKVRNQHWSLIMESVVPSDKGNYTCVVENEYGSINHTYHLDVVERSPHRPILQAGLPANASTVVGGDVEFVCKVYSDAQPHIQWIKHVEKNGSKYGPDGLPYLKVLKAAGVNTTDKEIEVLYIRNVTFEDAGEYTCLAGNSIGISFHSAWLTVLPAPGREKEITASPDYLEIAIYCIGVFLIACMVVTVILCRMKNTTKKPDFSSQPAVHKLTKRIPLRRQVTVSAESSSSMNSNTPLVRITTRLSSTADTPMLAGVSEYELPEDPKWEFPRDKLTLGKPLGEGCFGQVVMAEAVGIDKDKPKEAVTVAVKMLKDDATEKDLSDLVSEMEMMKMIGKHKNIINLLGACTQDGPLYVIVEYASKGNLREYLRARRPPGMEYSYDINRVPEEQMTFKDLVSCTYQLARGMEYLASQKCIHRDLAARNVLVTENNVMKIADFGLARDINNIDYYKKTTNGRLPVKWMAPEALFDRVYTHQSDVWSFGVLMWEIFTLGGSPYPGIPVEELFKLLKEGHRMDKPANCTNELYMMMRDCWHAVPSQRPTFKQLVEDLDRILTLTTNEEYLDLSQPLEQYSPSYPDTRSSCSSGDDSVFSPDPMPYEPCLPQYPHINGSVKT
Procedure: as §1, §2, §3, §4, §5, §6, §7, §8, §9, §10, §11, §12, §13, §14, §15, §16, §17, §18, §19, §20, §21, §22

FGFR3 = target: T3, FGFR3 (Homo sapiens, UniProt P22607); assay: as above; conditions: ATP 50 μM, substrate TK 1 μM
T3 construct: purchased Carna 08-135
T3 sequence (P22607 23-806): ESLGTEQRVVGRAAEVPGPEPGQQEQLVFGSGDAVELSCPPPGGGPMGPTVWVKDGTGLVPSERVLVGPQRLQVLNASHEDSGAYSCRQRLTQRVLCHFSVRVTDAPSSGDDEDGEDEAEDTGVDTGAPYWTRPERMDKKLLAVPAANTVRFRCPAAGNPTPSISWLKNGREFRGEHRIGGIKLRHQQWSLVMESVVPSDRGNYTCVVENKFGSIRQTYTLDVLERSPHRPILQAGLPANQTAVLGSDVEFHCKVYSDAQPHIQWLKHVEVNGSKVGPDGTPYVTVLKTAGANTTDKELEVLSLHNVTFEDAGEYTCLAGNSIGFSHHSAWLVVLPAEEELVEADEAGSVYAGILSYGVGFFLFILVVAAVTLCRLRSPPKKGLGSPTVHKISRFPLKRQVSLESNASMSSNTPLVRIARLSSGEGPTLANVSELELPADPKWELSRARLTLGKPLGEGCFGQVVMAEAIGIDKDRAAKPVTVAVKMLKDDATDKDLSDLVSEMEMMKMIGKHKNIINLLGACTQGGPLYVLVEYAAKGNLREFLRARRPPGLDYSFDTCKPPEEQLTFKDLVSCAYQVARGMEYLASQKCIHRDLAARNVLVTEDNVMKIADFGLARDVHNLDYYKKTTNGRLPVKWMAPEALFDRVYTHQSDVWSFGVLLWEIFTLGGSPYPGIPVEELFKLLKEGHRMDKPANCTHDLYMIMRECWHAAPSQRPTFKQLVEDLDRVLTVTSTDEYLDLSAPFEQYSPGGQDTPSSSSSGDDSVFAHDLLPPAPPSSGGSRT
Procedure: as §1, §2, §3, §4, §5, §6, §7, §8, §9, §10, §11, §12, §13, §14, §15, §16, §17, §18, §19, §20, §21, §22

VEGFR2 = target: T4, VEGFR2 (Homo sapiens, UniProt P35968); assay: Assay I: VEGFR2 kinase inhibition (HTRF KinEASE-TK); conditions: ATP 5 μM, substrate TK 1 μM
T4 construct: purchased Carna 08-191
T4 sequence (P35968 20-1356): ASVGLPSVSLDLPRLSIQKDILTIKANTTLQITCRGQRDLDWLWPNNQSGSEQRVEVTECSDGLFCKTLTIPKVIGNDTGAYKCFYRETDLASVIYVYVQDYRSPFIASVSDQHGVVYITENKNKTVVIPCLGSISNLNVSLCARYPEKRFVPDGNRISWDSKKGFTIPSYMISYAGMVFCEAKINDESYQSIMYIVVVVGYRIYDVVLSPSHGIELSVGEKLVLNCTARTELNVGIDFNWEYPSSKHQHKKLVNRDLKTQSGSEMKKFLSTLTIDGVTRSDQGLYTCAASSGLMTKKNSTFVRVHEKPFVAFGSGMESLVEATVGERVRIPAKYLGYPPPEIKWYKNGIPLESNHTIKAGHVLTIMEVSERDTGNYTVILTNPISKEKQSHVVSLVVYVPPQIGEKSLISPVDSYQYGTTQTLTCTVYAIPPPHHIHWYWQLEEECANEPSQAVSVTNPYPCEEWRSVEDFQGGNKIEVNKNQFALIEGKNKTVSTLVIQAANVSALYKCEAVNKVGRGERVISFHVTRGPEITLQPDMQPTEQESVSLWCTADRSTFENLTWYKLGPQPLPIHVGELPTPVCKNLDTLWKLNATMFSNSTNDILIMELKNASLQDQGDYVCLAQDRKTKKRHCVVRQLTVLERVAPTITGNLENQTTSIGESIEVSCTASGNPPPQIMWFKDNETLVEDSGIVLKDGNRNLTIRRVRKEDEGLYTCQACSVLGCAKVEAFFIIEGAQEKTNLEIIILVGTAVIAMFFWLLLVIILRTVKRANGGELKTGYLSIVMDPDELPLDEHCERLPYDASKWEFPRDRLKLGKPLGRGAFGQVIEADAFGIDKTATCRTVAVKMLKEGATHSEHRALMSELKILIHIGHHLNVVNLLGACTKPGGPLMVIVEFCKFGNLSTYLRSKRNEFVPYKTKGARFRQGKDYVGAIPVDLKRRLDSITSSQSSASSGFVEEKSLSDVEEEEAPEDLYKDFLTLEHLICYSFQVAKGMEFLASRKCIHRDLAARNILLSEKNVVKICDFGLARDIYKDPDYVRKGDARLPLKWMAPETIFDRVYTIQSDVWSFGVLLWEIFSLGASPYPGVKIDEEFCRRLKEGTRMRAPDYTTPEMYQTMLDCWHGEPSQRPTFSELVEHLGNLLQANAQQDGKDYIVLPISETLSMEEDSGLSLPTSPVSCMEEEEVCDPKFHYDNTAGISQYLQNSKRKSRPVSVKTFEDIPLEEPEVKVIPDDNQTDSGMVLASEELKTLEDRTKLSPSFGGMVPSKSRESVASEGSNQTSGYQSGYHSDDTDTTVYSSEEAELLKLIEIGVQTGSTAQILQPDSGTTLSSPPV
Procedure: (§23) Assay I: Determination of Inhibitory Activity Against FGFR Mutants
as §2, §4, §5, §6, §7, §8
3. Formulating 2×FGFR1 V561M/FGFR2 V564F/FGFR3 K650E/VEGFR2 with 1× of enzyme reaction buffer.
4. Adding 2 μl FGFR1 V561M/FGFR2 V564F/FGFR3 K650E/VEGFR2 kinase (formulated in step 3) to each well of the reaction plate.
as §11
(§24) 6. Formulating 2.5×TK-substrate-biotin and ATP mixture with 1× enzyme reaction buffer and adding 2 μl of K-substrate-biotin/ATP mixture to the reaction plate.
as §13, §14, §15, §16, §17, §18, §19, §20, §21, §22
Positive control IC50 was within 3 times of the average value

FGFR1 V561M = target: T5, FGFR1 V561M (Homo sapiens, UniProt P11362, V561M); assay: Assay I: inhibitory activity against FGFR mutants (HTRF KinEASE-TK); conditions: ATP 5 μM, substrate TK 1 μM
T5 construct: purchased Signalchem F04-13G
T5 sequence (P11362 22-822 V561M): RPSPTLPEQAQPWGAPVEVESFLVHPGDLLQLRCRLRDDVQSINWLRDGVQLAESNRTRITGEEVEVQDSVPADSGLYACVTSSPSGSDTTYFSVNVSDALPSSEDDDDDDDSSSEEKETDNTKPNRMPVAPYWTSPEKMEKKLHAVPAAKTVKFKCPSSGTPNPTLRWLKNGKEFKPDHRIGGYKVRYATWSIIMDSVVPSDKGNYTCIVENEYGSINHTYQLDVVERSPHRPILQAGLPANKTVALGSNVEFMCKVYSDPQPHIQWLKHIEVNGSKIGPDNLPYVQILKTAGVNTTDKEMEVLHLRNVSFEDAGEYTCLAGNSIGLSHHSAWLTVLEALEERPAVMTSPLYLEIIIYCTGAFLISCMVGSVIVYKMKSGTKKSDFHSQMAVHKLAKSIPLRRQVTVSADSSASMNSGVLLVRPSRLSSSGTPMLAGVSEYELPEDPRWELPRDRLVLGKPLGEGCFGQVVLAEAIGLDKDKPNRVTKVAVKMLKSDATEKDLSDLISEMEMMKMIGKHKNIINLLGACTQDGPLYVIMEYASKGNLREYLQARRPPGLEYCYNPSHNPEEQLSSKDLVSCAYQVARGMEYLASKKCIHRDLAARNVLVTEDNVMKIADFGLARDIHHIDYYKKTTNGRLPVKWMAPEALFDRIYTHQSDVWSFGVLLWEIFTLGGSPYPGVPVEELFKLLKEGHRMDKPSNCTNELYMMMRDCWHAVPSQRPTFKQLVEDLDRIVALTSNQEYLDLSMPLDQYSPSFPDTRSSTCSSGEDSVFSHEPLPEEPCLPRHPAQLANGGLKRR
Procedure: as §23, §2, §4, §5, §6, §7, §8, §11, §24, §13, §14, §15, §16, §17, §18, §19, §20, §21, §22

FGFR2 V564F = target: T6, FGFR2 V564F (Homo sapiens, UniProt P21802, V564F); assay: as above; conditions: ATP 10 μM, substrate TK 1 μM
T6 construct: purchased Signalchem F05-12FG
T6 sequence (P21802 22-821 V564F): as the sequence (P21802 22-821) above, with V543F counted along it
Procedure: as §23, §2, §4, §5, §6, §7, §8, §11, §24, §13, §14, §15, §16, §17, §18, §19, §20, §21, §22

FGFR3 V555M = target: T7, FGFR3 V555M (Homo sapiens, UniProt P22607, V555M); assay: as above; conditions: ATP 20 μM, substrate TK 1 μM
T7 construct: purchased Signalchem F06-12GG
T7 sequence (P22607 397-806 V555M limits assumed): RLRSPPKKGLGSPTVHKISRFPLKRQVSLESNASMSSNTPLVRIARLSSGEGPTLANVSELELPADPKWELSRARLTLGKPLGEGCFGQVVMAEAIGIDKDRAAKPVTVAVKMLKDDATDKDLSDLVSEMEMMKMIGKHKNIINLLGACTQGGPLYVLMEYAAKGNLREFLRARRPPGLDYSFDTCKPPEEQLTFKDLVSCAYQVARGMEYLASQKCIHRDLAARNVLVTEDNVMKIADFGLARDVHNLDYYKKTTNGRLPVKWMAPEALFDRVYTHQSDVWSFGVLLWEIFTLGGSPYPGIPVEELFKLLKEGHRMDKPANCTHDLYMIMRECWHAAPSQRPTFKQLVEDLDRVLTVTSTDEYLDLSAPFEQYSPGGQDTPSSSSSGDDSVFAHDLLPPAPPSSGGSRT
Procedure: as §23, §2, §4, §5, §6, §7, §8, §11, §24, §13, §14, §15, §16, §17, §18, §19, §20, §21, §22

T1 sequence (P11362 22-822): as the sequence (P11362 22-822 V561M) above, with M540V counted along it

Row | SMILES | IC50 (FGFR1) | IC50 (FGFR2) | IC50 (FGFR3) | IC50 (VEGFR2) | IC50 (FGFR1 V561M) | IC50 (FGFR2 V564F) | IC50 (FGFR3 V555M)
1 | CC(Oc1ccc2[nH]nc(-c3nc4c([nH]3)CN(C(=O)N3CCN(C)CC3)C4)c2c1)c1c(Cl)cncc1Cl (stereo not shown) [Compound 1, (2-(5-(1-(3,5-dichloropyridin-4-yl)ethoxy)-1H-indazol-3-yl)-4,6-dihydropyrrolo[3,4-d]imidazol-5(1H)-yl)(4-methylpiperazin-1-yl)ketone] | 2.7 nM | 2.9 nM | 4.1 nM | 1 nM | 0.26 nM | 0.34 nM | 0.34 nM
2 | CC(Oc1ccc2[nH]nc(-c3nc4c([nH]3)CN(C(=O)N3CCN(C)CC3)CC4)c2c1)c1c(Cl)cncc1Cl (stereo not shown) [Compound 5, (2-(5-(1-(3,5-dichloropyridin-4-yl)ethoxy)-1H-indazol-3-yl)-3,4,6,7-tetrahydro-5H-imidazo[4,5-c]pyridin-5-yl)(4-methylpiperazin-1-yl)ketone] | 1.8 nM | 2.1 nM | 3.8 nM | 0.75 nM | 0.58 nM | 0.36 nM | 0.23 nM
3 | CC(Oc1ccc2[nH]nc(-c3nc4c([nH]3)CN(C(=O)N3CCOCC3)C4)c2c1)c1c(Cl)cncc1Cl (stereo not shown) [Compound 8, (2-(5-(1-(3,5-dichloropyridin-4-yl)ethoxy)-1H-indazol-3-yl)-4,6-dihydropyrrolo[3,4-d]imidazol-5(1H)-yl)(morpholinyl)ketone] | 4.1 nM | 2.8 nM | 4.5 nM | 2.1 nM | 0.33 nM | 0.36 nM | 0.45 nM
4 | CC(Oc1ccc2[nH]nc(-c3nc4c([nH]3)CN(C(=O)N3CC[C@H](O)C3)C4)c2c1)c1c(Cl)cncc1Cl (stereo partly drawn) [Compound 10, (2-(5-(1-(3,5-dichloropyridin-4-yl)ethoxy)-1H-indazol-3-yl)-4,6-dihydropyrrolo[3,4-d]imidazol-5(1H)-yl)((S)-3-hydroxypyrrolidin-1-yl)ketone] | 3.1 nM | 2.2 nM | 3.4 nM | 2.4 nM | 0.2 nM | 0.33 nM | 0.35 nM
5 | CC(Oc1ccc2[nH]nc(-c3nc4c([nH]3)CN(C)C4)c2c1)c1c(Cl)cncc1Cl (stereo not shown) [Compound 11, 5-(1-(3,5-dichloropyridin-4-yl)ethoxy)-3-(5-methyl-1,4,5,6-tetrahydropyrrolo[3,4-d]imidazol-2-yl)-1H-indazole] | 1.7 nM | 0.95 nM | 0.6 nM | 25.6 nM | 0.46 nM | 1.3 nM | 1.1 nM
6 | C[C@@H](Oc1ccc2[nH]nc(-c3nc4c([nH]3)CN(C(=O)CN(C)C)C4)c2c1)c1c(Cl)cncc1Cl [Compound 43, (R)-1-(2-(5-(1-(3,5-dichloropyridin-4-yl)ethoxy)-1H-indazol-3-yl)-4,6-dihydropyrrolo[3,4-d]imidazol-5(1H)-yl)-2-(dimethylamino)ethan-1-one] |  |  |  | 3.3 nM | 0.26 nM | 0.13 nM | 0.35 nM
7 | C[C@@H](Oc1ccc2[nH]nc(-c3nc4c([nH]3)CN(C(=O)[C@@H]3CCCN3)C4)c2c1)c1c(Cl)cncc1Cl [Compound 44, 3-(5-(L-prolinyl)-1,4,5,6-tetrahydropyrrolo[3,4-d]imidazol-2-yl)-5-((R)-1-(3,5-dichloropyridin-4-yl)ethoxy)-1H-indazole] |  |  |  | 5.3 nM | 0.82 nM | 0.32 nM | 0.43 nM
8 | C[C@@H](Oc1ccc2[nH]nc(-c3nc4c([nH]3)CN(C(=O)[C@@H]3CCCN3C)C4)c2c1)c1c(Cl)cncc1Cl [Compound 45, 5-((R)-1-(3,5-dichloropyridin-4-yl)ethoxy)-3-(5-(methyl-L-prolinyl)-1,4,5,6-tetrahydropyrrolo[3,4-d]imidazol-2-yl)-1H-indazole] |  |  |  | 7.6 nM | 0.81 nM | 0.36 nM | 0.18 nM
9 | C[C@@H](Oc1ccc2[nH]nc(-c3nc4c([nH]3)CN(C(=O)[C@@H]3CCCCN3)C4)c2c1)c1c(Cl)cncc1Cl [Compound 46, (2-(5-((R)-1-(3,5-dichloropyridin-4-yl)ethoxy)-1H-indazol-3-yl)-4,6-dihydropyrrolo[3,4-d]imidazol-5(1H)-yl)((S)-piperidin-2-yl)ketone] |  |  |  | 9.9 nM | 0.65 nM | 0.29 nM | 0.33 nM
10 | C[C@@H](Oc1ccc2[nH]nc(-c3nc4c([nH]3)CN(C(=O)[C@@H]3CCCCN3C)C4)c2c1)c1c(Cl)cncc1Cl [Compound 47, (2-(5-((R)-1-(3,5-dichloropyridin-4-yl)ethoxy)-1H-indazol-3-yl)-4,6-dihydropyrrolo[3,4-d]imidazol-5(1H)-yl)((S)-1-methylpiperidin-2-yl)ketone] |  |  |  | 2.5 nM | 0.29 nM | 0.21 nM | 0.14 nM
11 | C[C@@H](Oc1ccc2[nH]nc(-c3nc4c([nH]3)CN(C(=O)CN3CCCCC3)C4)c2c1)c1c(Cl)cncc1Cl [Compound 50, (R)-1-(2-(5-(1-(3,5-dichloropyridin-4-yl)ethoxy)-1H-indazol-3-yl)-4,6-dihydropyrrolo[3,4-d]imidazol-5(1H)-yl)-2-(piperidin-1-yl)ethan-1-one] |  |  |  | 8.4 nM | 1.2 nM | 0.21 nM | 0.35 nM
12 | C[C@@H](Oc1ccc2[nH]nc(-c3nc4c([nH]3)CN(C(=O)CN3CCC3)C4)c2c1)c1c(Cl)cncc1Cl [Compound 51, (R)-2-(Azetidin-1-yl)-1-(2-(5-(1-(3,5-dichloropyridin-4-yl)ethoxy)-1H-indazol-3-yl)-4,6-dihydropyrrolo[3,4-d]imidazol-5(1H)-yl)ethan-1-one] |  |  |  | 14.2 nM | 0.74 nM | 0.21 nM | 0.16 nM
13 | C[C@@H](Oc1ccc2[nH]nc(-c3nc4c([nH]3)CN(C(=O)CN3CC(O)C3)C4)c2c1)c1c(Cl)cncc1Cl [Compound 52, (R)-1-(2-(5-(1-(3,5-Dichloropyridin-4-yl)ethoxy)-1H-indazol-3-yl)-4,6-dihydropyrrolo[3,4-d]imidazol-5(1H)-yl)-2-(3-hydroxyazetidin-1-yl)ethan-1-one] |  |  |  | 13.6 nM | 0.87 nM | 0.16 nM | 0.14 nM
14 | C[C@@H](Oc1ccc2[nH]nc(-c3nc4c([nH]3)CN(C(=O)CN3CC(F)C3)C4)c2c1)c1c(Cl)cncc1Cl [Compound 53, (R)-1-(2-(5-(1-(3,5-dichloropyridin-4-yl)ethoxy)-1H-indazol-3-yl)-4,6-dihydropyrrolo[3,4-d]imidazol-5(1H)-yl)-2-(3-fluoroazetidin-1-yl)ethan-1-one] |  |  |  | 45.5 nM | 6.4 nM | 0.82 nM | 1.9 nM
15 | C[C@@H](Oc1ccc2[nH]nc(-c3nc4c([nH]3)CN(C(=O)OCCN(C)C)C4)c2c1)c1c(Cl)cncc1Cl [Compound 54, 2-(dimethylamino)ethyl(R)-2-(5-(1-(3,5-dichloropyridin-4-yl)ethoxy)-1H-indazol-3-yl)-4,6-dihydropyrrolo[3,4-d]imidazole-5(1H)-carboxylate] |  |  |  | 3.3 nM | 0.55 nM | 0.15 nM | 0.11 nM
16 | C[C@@H](Oc1ccc2[nH]nc(-c3nc4c([nH]3)CN(C(=O)OC3CCN(C)C3)C4)c2c1)c1c(Cl)cncc1Cl (stereo partly drawn) [Compound 55, 1-Methylpyrrolidin-3-yl 2-(5-((R)-1-(3,5-dichloropyridin-4-yl)ethoxy)-1H-indazol-3-yl)-4,6-dihydropyrrolo[3,4-d]imidazole-5(1H)-carboxylate] |  |  |  | 13.4 nM | 5.1 nM | 0.34 nM | 0.87 nM
